Measured values from ChEMBL document CHEMBL5291721, “A preclinical secondary pharmacology resource illuminates target-adverse drug reaction associations of marketed drugs” (Nat Commun, 2023).

Tests used:
Progesterone receptor = target: T1, Progesterone receptor (Homo sapiens, UniProt P06401); format: functional
T1 sequence (P06401 whole entry): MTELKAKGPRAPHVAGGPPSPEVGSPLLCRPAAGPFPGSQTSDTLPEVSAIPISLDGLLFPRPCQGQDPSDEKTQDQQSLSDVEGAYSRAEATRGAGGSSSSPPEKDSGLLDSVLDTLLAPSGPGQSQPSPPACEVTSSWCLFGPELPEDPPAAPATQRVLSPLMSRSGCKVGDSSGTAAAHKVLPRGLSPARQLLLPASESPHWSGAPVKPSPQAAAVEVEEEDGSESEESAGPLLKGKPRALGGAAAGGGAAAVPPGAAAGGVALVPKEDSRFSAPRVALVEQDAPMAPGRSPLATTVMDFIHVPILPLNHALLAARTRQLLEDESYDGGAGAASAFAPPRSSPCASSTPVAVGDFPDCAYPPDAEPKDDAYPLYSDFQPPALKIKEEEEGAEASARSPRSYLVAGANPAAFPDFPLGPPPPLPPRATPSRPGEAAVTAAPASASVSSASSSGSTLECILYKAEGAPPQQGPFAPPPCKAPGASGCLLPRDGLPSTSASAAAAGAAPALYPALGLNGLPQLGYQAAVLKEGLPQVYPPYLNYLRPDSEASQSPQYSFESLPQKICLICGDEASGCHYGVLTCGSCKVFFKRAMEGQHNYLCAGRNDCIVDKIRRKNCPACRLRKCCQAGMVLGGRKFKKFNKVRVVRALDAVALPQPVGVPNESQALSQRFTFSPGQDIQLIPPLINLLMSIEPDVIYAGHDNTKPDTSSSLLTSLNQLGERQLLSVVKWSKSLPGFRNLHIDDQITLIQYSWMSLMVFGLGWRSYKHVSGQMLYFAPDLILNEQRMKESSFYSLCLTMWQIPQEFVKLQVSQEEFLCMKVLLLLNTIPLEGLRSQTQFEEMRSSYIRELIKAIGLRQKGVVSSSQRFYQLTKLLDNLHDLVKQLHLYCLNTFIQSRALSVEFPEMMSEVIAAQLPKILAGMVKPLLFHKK

Vasopressin V1a receptor = Vasopressin V1a receptor (Homo sapiens, UniProt P37288)
Vasopressin V1a receptor, sequence (P37288 whole entry): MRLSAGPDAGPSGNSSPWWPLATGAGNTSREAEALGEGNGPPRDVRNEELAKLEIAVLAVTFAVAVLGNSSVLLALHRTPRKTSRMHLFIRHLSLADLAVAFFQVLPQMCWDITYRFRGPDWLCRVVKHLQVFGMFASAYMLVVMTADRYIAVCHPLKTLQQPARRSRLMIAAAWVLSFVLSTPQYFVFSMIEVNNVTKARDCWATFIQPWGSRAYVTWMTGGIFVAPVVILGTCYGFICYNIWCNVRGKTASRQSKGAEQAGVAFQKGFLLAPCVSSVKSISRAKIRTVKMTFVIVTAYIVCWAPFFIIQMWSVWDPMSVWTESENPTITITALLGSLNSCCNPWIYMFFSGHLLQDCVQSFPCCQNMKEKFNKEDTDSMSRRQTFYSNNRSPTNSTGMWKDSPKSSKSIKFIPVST

Glucocorticoid receptor = target: T2, Glucocorticoid receptor (Homo sapiens, UniProt P04150)
T2 sequence (P04150 whole entry): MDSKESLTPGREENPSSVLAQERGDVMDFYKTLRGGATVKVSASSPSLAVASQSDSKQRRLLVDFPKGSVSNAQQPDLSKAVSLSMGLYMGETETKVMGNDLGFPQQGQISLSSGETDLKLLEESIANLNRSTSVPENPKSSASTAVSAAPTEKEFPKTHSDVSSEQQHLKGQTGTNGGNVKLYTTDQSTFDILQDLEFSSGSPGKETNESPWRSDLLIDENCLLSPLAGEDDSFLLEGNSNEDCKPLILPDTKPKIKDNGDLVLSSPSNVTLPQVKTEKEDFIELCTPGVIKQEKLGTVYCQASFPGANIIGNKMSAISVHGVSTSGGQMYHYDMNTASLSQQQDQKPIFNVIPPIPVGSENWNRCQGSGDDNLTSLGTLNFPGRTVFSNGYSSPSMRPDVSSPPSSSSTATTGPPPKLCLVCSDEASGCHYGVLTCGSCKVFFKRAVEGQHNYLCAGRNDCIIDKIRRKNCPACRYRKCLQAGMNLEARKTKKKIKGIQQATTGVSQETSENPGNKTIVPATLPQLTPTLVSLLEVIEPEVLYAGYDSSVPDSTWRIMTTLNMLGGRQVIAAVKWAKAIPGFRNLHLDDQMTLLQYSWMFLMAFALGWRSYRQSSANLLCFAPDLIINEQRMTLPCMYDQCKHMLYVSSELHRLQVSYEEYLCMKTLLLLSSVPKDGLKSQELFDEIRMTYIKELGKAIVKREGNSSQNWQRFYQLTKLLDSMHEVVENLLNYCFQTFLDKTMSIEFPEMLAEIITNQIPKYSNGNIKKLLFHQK

Mu-type opioid receptor = Mu-type opioid receptor (Homo sapiens, UniProt P35372)
Mu-type opioid receptor, sequence (P35372 whole entry): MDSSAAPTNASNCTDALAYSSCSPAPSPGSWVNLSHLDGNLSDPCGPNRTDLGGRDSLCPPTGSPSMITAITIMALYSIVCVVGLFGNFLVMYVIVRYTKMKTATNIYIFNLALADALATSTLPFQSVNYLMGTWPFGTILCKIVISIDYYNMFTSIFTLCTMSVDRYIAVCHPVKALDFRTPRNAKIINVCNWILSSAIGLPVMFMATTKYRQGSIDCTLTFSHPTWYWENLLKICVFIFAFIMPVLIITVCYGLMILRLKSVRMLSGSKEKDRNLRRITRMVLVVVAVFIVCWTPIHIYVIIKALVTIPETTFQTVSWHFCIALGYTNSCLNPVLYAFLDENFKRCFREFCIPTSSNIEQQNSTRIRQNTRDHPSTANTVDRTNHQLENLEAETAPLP

Cannabinoid receptor 1 [1] = target: T3, Cannabinoid receptor 1 (Homo sapiens, UniProt P21554); format: functional, cell-based
T3 sequence (P21554 whole entry): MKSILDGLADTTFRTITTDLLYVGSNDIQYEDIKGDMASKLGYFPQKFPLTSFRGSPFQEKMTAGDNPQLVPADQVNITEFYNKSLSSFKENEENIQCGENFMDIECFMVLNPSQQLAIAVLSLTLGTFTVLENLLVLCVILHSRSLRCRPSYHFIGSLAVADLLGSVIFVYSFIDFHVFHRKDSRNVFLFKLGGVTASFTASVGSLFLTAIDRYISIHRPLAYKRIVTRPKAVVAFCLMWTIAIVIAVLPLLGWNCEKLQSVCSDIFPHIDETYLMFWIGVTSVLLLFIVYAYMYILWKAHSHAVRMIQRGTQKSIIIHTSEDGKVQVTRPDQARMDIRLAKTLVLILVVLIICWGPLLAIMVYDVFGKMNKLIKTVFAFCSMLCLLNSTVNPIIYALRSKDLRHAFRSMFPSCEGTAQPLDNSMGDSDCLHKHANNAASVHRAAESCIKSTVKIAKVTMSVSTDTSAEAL

[2] = target: T4, 5-hydroxytryptamine receptor 1A (Homo sapiens, UniProt P08908); format: functional, cell-based
T4 sequence (P08908 whole entry): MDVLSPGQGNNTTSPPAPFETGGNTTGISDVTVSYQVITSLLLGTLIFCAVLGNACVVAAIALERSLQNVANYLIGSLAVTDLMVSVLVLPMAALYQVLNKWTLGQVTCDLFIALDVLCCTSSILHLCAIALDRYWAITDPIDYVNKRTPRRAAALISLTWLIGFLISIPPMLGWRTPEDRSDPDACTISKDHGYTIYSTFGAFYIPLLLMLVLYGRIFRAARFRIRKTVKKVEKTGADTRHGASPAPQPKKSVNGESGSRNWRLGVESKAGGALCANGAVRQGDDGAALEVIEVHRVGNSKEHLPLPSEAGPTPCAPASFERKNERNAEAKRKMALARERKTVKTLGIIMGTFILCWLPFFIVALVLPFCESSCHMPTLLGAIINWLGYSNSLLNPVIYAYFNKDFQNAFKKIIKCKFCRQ

[3] = target: T5, Alpha-1A adrenergic receptor (Homo sapiens, UniProt P35348); format: functional, cell-based
T5 sequence (P35348 whole entry): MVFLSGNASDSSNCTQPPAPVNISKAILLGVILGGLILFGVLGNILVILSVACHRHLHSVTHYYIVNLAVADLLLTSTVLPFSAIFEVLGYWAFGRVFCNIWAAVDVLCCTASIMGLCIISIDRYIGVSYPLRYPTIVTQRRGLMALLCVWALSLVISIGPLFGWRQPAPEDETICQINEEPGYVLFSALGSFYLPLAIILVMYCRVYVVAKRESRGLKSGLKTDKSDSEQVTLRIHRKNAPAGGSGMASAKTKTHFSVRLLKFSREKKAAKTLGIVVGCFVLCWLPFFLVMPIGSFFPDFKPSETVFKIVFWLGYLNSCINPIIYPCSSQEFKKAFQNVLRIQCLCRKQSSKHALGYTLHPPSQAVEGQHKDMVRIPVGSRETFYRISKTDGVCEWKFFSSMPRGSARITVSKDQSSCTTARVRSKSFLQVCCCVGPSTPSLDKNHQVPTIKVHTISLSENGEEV

Cannabinoid receptor 1 [4] = target: T3, Cannabinoid receptor 1; format: functional, cell-based; remark: listed apart in the source
[5] = target: T6, 5-hydroxytryptamine receptor 2A (Homo sapiens, UniProt P28223); format: functional, cell-based
T6 sequence (P28223 whole entry): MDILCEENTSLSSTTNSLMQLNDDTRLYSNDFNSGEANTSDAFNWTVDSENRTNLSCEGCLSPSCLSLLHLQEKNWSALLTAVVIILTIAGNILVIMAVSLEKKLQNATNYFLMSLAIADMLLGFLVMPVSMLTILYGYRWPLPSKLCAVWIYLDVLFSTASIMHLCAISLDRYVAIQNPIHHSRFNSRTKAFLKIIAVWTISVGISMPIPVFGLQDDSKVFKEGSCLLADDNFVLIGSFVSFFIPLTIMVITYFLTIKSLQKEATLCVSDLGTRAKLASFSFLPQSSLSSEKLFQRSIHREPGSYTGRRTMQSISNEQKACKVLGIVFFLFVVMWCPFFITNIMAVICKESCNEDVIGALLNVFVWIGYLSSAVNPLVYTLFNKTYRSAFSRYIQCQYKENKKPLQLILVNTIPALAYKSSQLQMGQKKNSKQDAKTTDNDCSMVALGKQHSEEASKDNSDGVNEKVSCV

[6] = target: T6, 5-hydroxytryptamine receptor 2A; format: functional, cell-based; remark: listed apart in the source
[7] = target: Sodium-dependent serotonin transporter (Homo sapiens, UniProt P31645)
Sodium-dependent serotonin transporter, sequence (P31645 whole entry): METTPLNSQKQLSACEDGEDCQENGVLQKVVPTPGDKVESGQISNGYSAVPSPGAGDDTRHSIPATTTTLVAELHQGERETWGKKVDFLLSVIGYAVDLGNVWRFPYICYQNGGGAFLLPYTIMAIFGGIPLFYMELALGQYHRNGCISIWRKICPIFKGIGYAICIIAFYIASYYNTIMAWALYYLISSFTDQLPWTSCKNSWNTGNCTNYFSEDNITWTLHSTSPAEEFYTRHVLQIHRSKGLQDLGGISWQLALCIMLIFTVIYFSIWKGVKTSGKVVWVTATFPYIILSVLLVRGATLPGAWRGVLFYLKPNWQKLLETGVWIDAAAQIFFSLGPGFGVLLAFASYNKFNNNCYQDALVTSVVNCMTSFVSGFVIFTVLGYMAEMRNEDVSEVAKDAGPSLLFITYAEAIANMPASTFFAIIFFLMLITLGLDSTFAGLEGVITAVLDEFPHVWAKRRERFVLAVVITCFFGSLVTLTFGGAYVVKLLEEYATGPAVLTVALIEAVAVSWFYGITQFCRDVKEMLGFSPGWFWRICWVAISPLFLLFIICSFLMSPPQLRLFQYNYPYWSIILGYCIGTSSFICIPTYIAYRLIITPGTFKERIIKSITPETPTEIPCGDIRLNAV
Also: assay procedure not described here.

Compound	AC50 (Progesterone receptor) [µM]	AC50 (Vasopressin V1a receptor) [µM]	AC50 (Glucocorticoid receptor) [µM]	AC50 (Mu-type opioid receptor) [µM]	AC50 (Cannabinoid receptor 1 [1]) [µM]	AC50 [2] [µM]	AC50 [3] [µM]	AC50 (Cannabinoid receptor 1 [4]) [µM]	AC50 [5] [µM]	AC50 [6] [µM]	AC50 [7] [µM]
CN(C)C(=O)Oc1cc(OC(=O)N(C)C)cc(C(O)CNC(C)(C)C)c1 (stereo not drawn) [BAMBUTEROL]	> 30	> 30	> 30								
C[C@H]1C[C@H]2[C@@H]3CCC4=CC(=O)C=C[C@]4(C)[C@@]3(Cl)[C@@H](O)C[C@]2(C)[C@@]1(O)C(=O)CO [BECLOMETHASONE]		> 10		> 30							
CO[C@@]1(NC(=O)CSCC#N)C(=O)N2C(C(=O)O)=C(CSc3nnnn3C)CS[C@@H]21 [CEFMETAZOLE]					> 30	> 30	> 30	> 30			
CO/N=C(\C(=O)N[C@@H]1C(=O)N2C(C(=O)[O-])=C(C[n+]3cccc4c3CCC4)CS[C@H]12)c1csc(N)n1 [CEFPIROME]					> 30		> 30	> 30	> 30	> 30	
CC[C@H]1OC(=O)[C@H](C)[C@@H](O[C@H]2C[C@@](C)(OC)[C@@H](O)[C@H](C)O2)[C@H](C)[C@@H](O[C@@H]2O[C@H](C)C[C@H](N(C)C)[C@H]2O)[C@](C)(OC)C[C@@H](C)C(=O)[C@H](C)[C@@H](O)[C@]1(C)O [CLARITHROMYCIN]	> 30	> 30	> 30		> 30		> 30	> 30			
Oc1c(I)cc(Cl)c2cccnc12 [CLIOQUINOL]					> 30	> 30	> 30	> 30	> 30	> 30	
C[C@@H]1CCC[C@H](C)N1NC(=O)c1ccc(Cl)c(S(N)(=O)=O)c1 [CLOPAMIDE]	> 30	> 30	> 30		> 30	> 30	> 30	> 30	> 30	> 30	> 30
COc1ccc2c(c1)[C@]13CCCC[C@@H]1[C@H](C2)N(C)CC3 [DEXTROMETHORPHAN]		> 10	> 30	2.7		> 10					
O=c1oc2ccccc2c(O)c1Cc1c(O)c2ccccc2oc1=O [DICUMAROL]	> 10			> 30		> 10					
CCn1cc(C(=O)O)c(=O)c2cc(F)c(N3CCNCC3)nc21 [ENOXACIN]		> 10		> 10		> 10					
O=C(O)CSCC(=O)NC1CCSC1=O (stereo not drawn) [ERDOSTEINE]	> 30	> 30			> 30		> 30	> 30	> 30	> 30	> 30
COc1cccc(N(C)C(=S)Oc2ccc3c(c2)CCCC3)n1 [LIRANAFTATE]	> 30	> 30			> 30		> 30	> 30	7.4	> 30	> 30
C#C[C@]1(O)CC[C@H]2[C@@H]3CCc4cc(OC)ccc4[C@H]3CC[C@@]21C [MESTRANOL]			0.516	> 30		> 10					
N=C(N)c1ccc2cc(OC(=O)c3ccc(N=C(N)N)cc3)ccc2c1 [NAFAMOSTAT]		> 30			> 30		15	> 30	> 30	> 30	8.2
CNC(=O)Oc1ccc2c(c1)[C@]1(C)CCN(C)[C@@H]1N2C [PHYSOSTIGMINE]	> 30	> 30	> 30		> 30	> 30	> 30	> 30			
O=C(O)c1cc(O)c2c3nc4ccccc4oc-3cc(=O)c2n1 [PIRENOXINE]	> 30	> 30	> 30		> 30	> 30	> 30	> 30	> 30	> 30	> 30
NS(=O)(=O)c1cc(C(=O)O)cc(N2CCCC2)c1Oc1ccccc1 [PIRETANIDE]	> 30	> 30	> 30		> 30	> 30		> 30	> 30	> 30	0.92
COCCCOc1ccnc(C[S+]([O-])c2nc3ccccc3[nH]2)c1C (stereo not drawn) [RABEPRAZOLE]		> 10	> 30	> 30		> 10					
CC(C)=CCOc1ccc(/C=C/C(=O)c2ccc(OCC=C(C)C)cc2OCC(=O)O)cc1 [SOFALCONE]	9.4	> 30	> 30		> 30		25	11	> 30	> 30	> 30
O=C(CCCN1CCC2(CC1)C(=O)NCN2c1ccccc1)c1ccc(F)cc1 [SPIPERONE]	> 30	> 30	> 30		> 30		1.6	> 30			0.0086
CCSc1ccc2c(c1)N(CCCN1CCN(C)CC1)c1ccccc1S2 [THIETHYLPERAZINE]	> 30						1.6		1.6	> 30	
CN(C)c1cc(NC(=O)CNC(C)(C)C)c(O)c2c1C[C@H]1C[C@H]3[C@H](N(C)C)C(O)=C(C(N)=O)C(=O)[C@@]3(O)C(O)=C1C2=O [TIGECYCLINE]	> 30	> 30	> 30						> 30	> 30	> 30
